Tests used:
[1] = compound: Cc1ccc2nc(NCCN)c3ncc(C)n3c2c1 + CC(=O)Nc1cccc(-n2c(=O)n(C3CC3)c(=O)c3c(Nc4ccc(I)cc4F)n(C)c(=O)c(C)c32)c1 [Trametinib] (partner 0.02 µM); assay: relative viability (nuclei count vs DMSO), 5 days (fraction); higher = more cells survive
How it was run: (§1)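 Lung cancer cell lines were pin-tool dosed in 1536-well plates on the day after seeding, with either a lone drug or a fixed anchor-drug dose plus five library-drug doses (not always all listed) in √10 steps. Nuclei were counted on 4× images after 5 days. Relative viability is the ratio of treated-well to vehicle-well nuclei counts, with each value a median of duplicate plates.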

Salubrinal + Dasatinib = compound: O=C(/C=C/c1ccccc1)NC(NC(=S)Nc1cccc2cccnc12)C(Cl)(Cl)Cl [Salubrinal] + Cc1nc(Nc2ncc(C(=O)Nc3c(C)cccc3Cl)s2)cc(N2CCN(CCO)CC2)n1 [Dasatinib] (partner 0.075 µM); assay: as above
How it was run: as §1

Cell Line	relative viability ([1]; first compound 0.04 µM)	relative viability ([1]; first compound 0.1265 µM)	relative viability ([1]; first compound 0.4 µM)	relative viability ([1]; first compound 1.265 µM)	relative viability ([1]; first compound 4 µM)	relative viability (Salubrinal + Dasatinib; first compound 0.08 µM)	relative viability (Salubrinal + Dasatinib; first compound 0.253 µM)	relative viability (Salubrinal + Dasatinib; first compound 0.8 µM)	relative viability (Salubrinal + Dasatinib; first compound 2.53 µM)	relative viability (Salubrinal + Dasatinib; first compound 8 µM)
HOP-62	0.41	0.374	0.376	0.387	0.328	0.662	0.586	0.703	0.742	0.478
CAL-12T	0.352	0.323	0.361	0.357	0.271	0.543	0.422	0.347	0.264	0.23
NCI-H520	0.75	0.658	0.753	0.677	0.621	0.252	0.236	0.292	0.231	0.292
NCI-H1755	0.757	0.809	0.769	0.8	0.776	0.443	0.444	0.45	0.426	0.344
NCI-H2023	0.595	0.561	0.661	0.574	0.32	0.707	0.489	0.671	0.593	0.343
NCI-H2009	0.309	0.251	0.286	0.273	0.28	0.288	0.287	0.304	0.278	0.235
